{
  "source": "patent US9439968B2",
  "about": "“Amine-containing lipidoids and uses thereof” (Massachusetts Institute of Technology, priority 2012, dated 2016)",
  "key": {"Factor VII": {"test_system": "Factor VII", "assay": "In vivo Factor VII gene silencing in mouse hepatocytes", "design": "species or system mice", "conditions": "for Relative FVII Activity: tail vein, serum two days post-injection"}, "[1]": {"test_system": "HeLa cells stably modified to express both firefly and Renilla luciferase", "assay": "In vitro transfection of HeLa cells with lipid nanoparticles (firefly luciferase silencing)", "type": "cell-based", "conditions": "40 nM anti-firefly luciferase siRNA formulated with lipidoid; firefly normalized to Renilla; crude lipidoids"}, "[2]": {"assay": "Histology (H&E) of liver, spleen, kidneys and pancreas", "type": "in vivo, mice", "conditions": "for dose at which liver necrosis was observed: single-dose studies (0-10 mg/kg)", "protocol": "Organs were harvested from animals that had received various doses of either 304O13 or C12-200 lipid nanoparticles (C12-200 is a control non-degradable lipidoid shown below). Organs were fixed overnight in 4% paraformaldehyde and transferred to 70% ethanol prior to paraffin embedding, sectioning, and H & E staining.\nHistological analysis was performed through H&E staining on sections from the liver, spleen, kidneys and pancreas. […] Pancreatic inflammation and islet cell enlargement were detected at C12-200 doses ≧2 mg/kg. […] Multi-dose studies were also conducted in which mice received four injections of 0.3, 1, 2, 3, or 5 mg/kg, once per week for four weeks. […] There was no sign of liver toxicity in any of the 304O13 groups up to 5 mg/kg."}, "Lipidoid hydrolysis": {"assay": "Lipidoid hydrolysis", "type": "physicochemical", "conditions": "6 N HCl reflux 24 h; KOH in EtOH/H2O reflux 41 h", "protocol": "To a 25 ml round bottom flask was added 304O13 (0.250 g, 0.263 mmol, 1 equiv). For acidic hydrolysis, 10 ml of a solution of 6 N HCl was added to the flask to afford a cloudy heterogeneous solution. The reaction was heated to reflux to afford a clear, homogeneous solution and was stirred at reflux for 24 hours. For basic hydrolysis, 10 ml of a solution of KOH in EtOH/H2O (solution=5.61 g KOH in 47.5 ml EtOH w/2.5 ml distilled H2O) was added to the flask to afford a clear colorless solution. The reaction was heated to reflux and stirred for 41 h. […] Reactions were concentrated to dryness under reduced pressure and diluted with CDCl3. The basic reaction was filtered to remove excess KOH. Proton NMR analysis was performed in CDCl3. Proton nuclear magnetic resonance spectra were recorded with a Bruker Avance 400 spectrometer, are depicted in parts per million on the δ scale, and are referenced from the residual protium in the NMR solvent (CDCl3: δ 7.26 (CHCl3).\nThe acrylate-based lipidoids provided herein also contain hydrolysable ester moieties, functional groups which are commonly incorporated into delivery vehicles to promote physiological degradation (Staubli, A., Ron, E. & Langer, R. J. Am. Chem. Soc. 112, 4419-4424 (1990); van Dijkhuizen-Radersma, et al. Biomaterials 23, 4719-4729 (2002); Geng, Y. & Discher, D. E. J. Am. Chem. Soc. 127, 12780-12781 (2005))."}, "[3]": {"assay": "Nanoparticle characterization", "type": "physicochemical"}, "[4]": {"assay": "Biodistribution of Cy5.5-labeled siRNA (IVIS, Odyssey, confocal)", "conditions": "liver harvested one hour post-injection"}, "Serum clinical chemistry": {"assay": "Serum clinical chemistry", "type": "in vivo, mice", "conditions": "72 hours after single 3 mg/kg dose or four once weekly 3 mg/kg doses", "protocol": "The mice had been injected with either a single 3 mg/kg dose of total siRNA or four 3 mg/kg doses (1× per week for four weeks). Blood was drawn for analysis 72 hours post-final injection. There were no statistically significant changes in any of the clinical chemistry parameters for any of the treated groups compared to controls (as evaluated by a student t-test). Error bars represent standard deviation (n=3-5).\n(§1) Post-sacrifice, cardiac sticks were immediately performed on animals that had been dosed with either 304O13 or C12-200 lipid nanoparticles. Blood was centrifuged in serum separator tubes at 5,000 rpm for 10 minutes, and serum was analyzed for various hematological parameters. Serum chemistry was evaluated on a Beckman Olympus AU400 Serum Chemistry Analyzer. Cytokines were analyzed using Bio-Plex Pro Mouse Cytokine 23-Plex Assay kits (Luminex Corporation, Austin, Tex.) on the Bio-Plex 200 system, according to manufacturer instructions.\nA preliminary safety assessment was conducted on the lead LNP, 304O13, and it was compared to another previously-discovered LNP formulation, C12-200 (Love, K. T. et al. Lipid-like materials for low-dose, in vivo gene silencing. PNAS 107, 1864-1869 (2010)). […] Serum cytokine levels for both materials were assessed in mice four hours after a 3 mg/kg IV bolus injection (total siRNA). […]"}, "CD45": {"test_system": "CD45", "assay": "In vivo CD45 silencing in leukocyte populations", "conditions": "peritoneal cavity and spleen, three days post intravenous delivery"}, "Serum cytokine profiling": {"assay": "Serum cytokine profiling", "type": "in vivo, mice", "conditions": "four hours after 3 mg/kg IV bolus (total siRNA)", "protocol": "as §1\nCytokine analysis was done by injecting either 304O13 or C12-200 nanoparticles at an siRNA dose of 3 mg/kg. Four hours post-injection, blood was harvested via cardiac stick and serum was isolated. Cytokine levels were quantified using an ELISA assay.\nA preliminary safety assessment was conducted on the lead LNP, 304O13, and it was compared to another previously-discovered LNP formulation, C12-200 (Love, K. T. et al. Lipid-like materials for low-dose, in vivo gene silencing. PNAS 107, 1864-1869 (2010)). […] Serum cytokine levels for both materials were assessed in mice four hours after a 3 mg/kg IV bolus injection (total siRNA). […] Clinical chemistry parameters were evaluated for both materials 72 hours after a single dose of 3 mg/kg and after four once weekly doses of 3 mg/kg each."}, "[5]": {"conditions": "multi-dose, four injections once per week for four weeks"}},
  "data": [
    {"smiles": "CCCCCCCCCCCCCOC(=O)CCN(CCC(=O)OCCCCCCCCCCCCC)CCN(CCC(=O)OCCCCCCCCCCCCC)CCN(CC)CC", "note": "[Lipidoid 123O13]", "values": [
      {"measurement": "Relative FVII Activity", "setting": "Factor VII; 0.1 mg/kg siRNA", "value": 0.86},
      {"measurement": "Relative FVII Activity", "setting": "Factor VII; 0.5 mg/kg siRNA", "value": 0.50},
      {"measurement": "Relative FVII Activity", "setting": "Factor VII; 2 mg/kg siRNA", "value": 0.00},
      {"measurement": "Relative FVII Activity", "setting": "Factor VII; 5 mg/kg siRNA", "value": 0.00},
      {"measurement": "Relative Luciferase Activity", "setting": "[1]", "value": 0.22}
    ]},
    {"smiles": "CCCCCCCCCCCCOC(=O)CCN(CCC(=O)OCCCCCCCCCCCC)C[C@@H]1CCCN1CCC(=O)OCCCCCCCCCCCC", "note": "[Lipidoid 154O12]", "values": [
      {"measurement": "Relative FVII Activity", "setting": "Factor VII; 5 mg/kg siRNA", "value": 0.99},
      {"measurement": "Relative Luciferase Activity", "setting": "[1]", "value": 0.33}
    ]},
    {"smiles": "CCCCCCCCCCCCCCOC(=O)CCN(CCC(=O)OCCCCCCCCCCCCCC)[C@@H](CO)[C@H](C)O", "note": "[Lipidoid 196O14]", "values": [
      {"measurement": "Relative FVII Activity", "setting": "Factor VII; 5 mg/kg siRNA", "value": 0.82},
      {"measurement": "Relative Luciferase Activity", "setting": "[1]", "value": 0.38}
    ]},
    {"smiles": "CCCCCCCCCCCCCCOC(=O)CCN(CCC(=O)OCCCCCCCCCCCCCC)CCC1CCN(CCC(=O)OCCCCCCCCCCCCCC)CC1", "note": "[Lipidoid 205O14]", "values": [
      {"measurement": "Relative FVII Activity", "setting": "Factor VII; 5 mg/kg siRNA", "value": 0.83},
      {"measurement": "Relative Luciferase Activity", "setting": "[1]", "value": 0.43}
    ]},
    {"smiles": "CCCCCCCCCCCCCOC(=O)CCN(C)CCCN(CC)CCCN(C)CCC(=O)OCCCCCCCCCCCCC", "note": "[Lipidoid 218O13]", "values": [
      {"measurement": "Relative FVII Activity", "setting": "Factor VII; 5 mg/kg siRNA", "value": 0.73},
      {"measurement": "Relative Luciferase Activity", "setting": "[1]", "value": 0.41}
    ]},
    {"smiles": "CCCCCCCCCCCCCOC(=O)CCN(CCC(=O)OCCCCCCCCCCCCC)CC1CCCN1C", "note": "(stereo not shown) [Lipidoid 232O13]", "values": [
      {"measurement": "Relative Luciferase Activity", "setting": "[1]", "value": 0.39}
    ]},
    {"smiles": "CCCCCCCCCCCCCOC(=O)CCN(CCC(=O)OCCCCCCCCCCCCC)CC1CCCN(C)C1", "note": "(stereo not shown) [Lipidoid 235O13]", "values": [
      {"measurement": "Relative FVII Activity", "setting": "Factor VII; 5 mg/kg siRNA", "value": 0.39},
      {"measurement": "Relative Luciferase Activity", "setting": "[1]", "value": 0.42}
    ]},
    {"smiles": "CCCCCCCCCCCCCOC(=O)CCN(C)CCN(CCN(C)CCC(=O)OCCCCCCCCCCCCC)CCN(C)CCC(=O)OCCCCCCCCCCCCC", "note": "[Lipidoid 304O13]", "values": [
      {"measurement": "doses with no sign of liver toxicity", "setting": "[2]; [5]", "value": "up to 5 mg/kg"},
      {"measurement": "dose at which a small amount of apoptosis in splenic red pulp was observed", "setting": "[2]; single-dose studies", "value": 10, "unit": "mg/kg"},
      {"measurement": "dose at which liver necrosis was observed", "setting": "[2]", "value": 10, "unit": "mg/kg"},
      {"measurement": "degradation under hydrolytic conditions (1H NMR, TLC)", "setting": "Lipidoid hydrolysis", "value": "degraded to the anticipated alkyl-alcohol product"},
      {"measurement": "siRNA Entrapment", "setting": "[3]; lipid nanoparticle, RiboGreen RNA assay", "value": 84.2, "unit": "%"},
      {"measurement": "Diameter", "setting": "[3]; lipid nanoparticle, average effective diameter", "value": 86.0, "unit": "nm"},
      {"measurement": "Zeta Potential", "setting": "[3]; lipid nanoparticle, neutral pH", "value": 13.7, "unit": "mV"},
      {"measurement": "pKa", "setting": "[3]; nanoparticle surface, TNS assay", "value": 6.8},
      {"measurement": "siRNA distribution within liver (confocal microscopy)", "setting": "[4]", "value": "siRNA accumulation throughout nearly all hepatocellular tissue"},
      {"measurement": "albumin, ALT, AST, ALP, total bilirubin, GGT", "setting": "Serum clinical chemistry", "value": "no toxicologically significant increases"},
      {"measurement": "Relative FVII Activity", "setting": "Factor VII; 0.1 mg/kg siRNA", "value": 0.54},
      {"measurement": "Relative FVII Activity", "setting": "Factor VII; 0.5 mg/kg siRNA", "value": 0.23},
      {"measurement": "Relative FVII Activity", "setting": "Factor VII; 2 mg/kg siRNA", "value": 0.02},
      {"measurement": "Relative FVII Activity", "setting": "Factor VII; 5 mg/kg siRNA", "value": 0.01},
      {"measurement": "time for Factor VII levels to return to baseline", "setting": "Factor VII; optimized 304O13, single injection at 0.1 mg/kg", "value": "≤ 18", "unit": "days"},
      {"measurement": "CD45 silencing in immune cells", "setting": "CD45", "value": "most robust CD45 silencing"},
      {"measurement": "Relative Luciferase Activity", "setting": "[1]", "value": 0.08}
    ]},
    {"smiles": "CCCCCCCCCCCCOC(=O)CCN(CCC(=O)OCCCCCCCCCCCC)CC1(C)CC(N(CCC(=O)OCCCCCCCCCCCC)CCC(=O)OCCCCCCCCCCCC)CC(C)(C)C1", "note": "(stereo not shown) [Lipidoid 315O12]", "values": [
      {"measurement": "Relative FVII Activity", "setting": "Factor VII; 5 mg/kg siRNA", "value": 0.99},
      {"measurement": "CD45 silencing in immune cells", "setting": "CD45", "value": "modest CD45 silencing"},
      {"measurement": "Relative Luciferase Activity", "setting": "[1]", "value": 0.30}
    ]},
    {"smiles": "CCCCCCCCCCCCCOC(=O)CCN(CCC(=O)OCCCCCCCCCCCCC)CCN(C)CCCN(C)CCN(CCC(=O)OCCCCCCCCCCCCC)CCC(=O)OCCCCCCCCCCCCC", "note": "[Lipidoid 503O13]", "values": [
      {"measurement": "FVII knockdown with control (non-targeting) siRNA", "setting": "Factor VII; LNP encapsulating control siRNA", "value": "did not result in FVII knockdown"},
      {"measurement": "Relative Luciferase Activity", "setting": "[1]", "value": 0.07}
    ]},
    {"smiles": "CCCCCCCCCCC(O)CN(CCN1CCN(CCN(CC(O)CCCCCCCCCC)CC(O)CCCCCCCCCC)CC1)CCN(CC(O)CCCCCCCCCC)CC(O)CCCCCCCCCC", "note": "(stereo not shown) [Lipidoid C12-200, reference compound]", "values": [
      {"measurement": "doses at which liver necrosis and inflammation were observed", "setting": "[2]; [5]", "value": "≥ 1", "unit": "mg/kg"},
      {"measurement": "doses at which pancreatic inflammation and islet cell enlargement were detected", "setting": "[2]; single-dose studies", "value": "≥ 2", "unit": "mg/kg"},
      {"measurement": "dose at which liver necrosis was observed", "setting": "[2]", "value": 7.5, "unit": "mg/kg"},
      {"measurement": "serum IL-6, IP-10, KC and MCP-1 levels vs PBS control and 304O13 groups", "setting": "Serum cytokine profiling", "value": "elevated"},
      {"measurement": "albumin, ALT, AST, ALP, total bilirubin, GGT", "setting": "Serum clinical chemistry", "value": "no toxicologically significant increases"}
    ]}
  ]
}
